This test deals with T1, Q46 protein aggregates (Homo sapiens, UniProt P42858, INS38QQQQQQQQQQQQQQQQQQQQQQQQQ).
T1 construct: fused on or other part: GST at the N-terminus, cut off by thrombin before the test to start aggregation
Kind of test: Q46 Radioligand Binding Assay (RBA). The note with it: displacement of 10 nM [3H3]MK-3328 from 5 μM aggregated Q46 protein, 60 minutes at 37° C. How it is done: Q46 Radioligand Binding Assay
For radioligand binding assays (RBA) GST-Q46 protein was generated based on a previous publication (Scherzinger et al. Cell, Vol. 90, 549-558, Aug. 8, 1997). For experiments 33 μM GST-Q46 was incubated with 150 μg/mL thrombin in assay buffer (150 mM NaCl, 50 mM Tris pH 8.0) and 2 mM CaCl2 for 16 hours at 37° C. Aggregated Q46 was pelleted by centrifugation for 5 minutes at 13,000 rpm in a bench top centrifuge and re-dissolved in the same volume of assay buffer. Test compounds were prepared by titration in DMSO at 11 concentrations from 33 μM to 1 nM. For the RBA, Q46 protein aggregates and test compounds were pre-incubated in assay buffer for 20 minutes at room temperature, in 140 μL/well in a 96-well plate (pp, round bottom). Then, ligand was added in 10 μL/well and incubated for 60 minutes at 37° C. Final assay concentrations were […] test compound, 5 μM Q46 protein (equivalent monomer concentration) and 10 nM ligand [^3H3]MK-3328 (Harrision et al., ACS Med. Chem. Lett., 2 (2011), pp 498-502). Samples were transferred onto GF/B filter plates and washed 2× with 200 μL PBS using a Filtermate Harvester. After drying filter plates for 1 hour at 37° C., the back of the plates was sealed with foil and 30 μl/well scintillation fluid (Packard MicroScint 40) was added, incubated for […] 15 minutes in the dark and counted in a TopCount reader. For analysis, replicate data from independent assay plates were normalized towards 0% and 100% inhibition using control wells of vehicle (0% inhibition) and 3 μM unlabelled MK-3328 (100% inhibition). IC50 values were determined with a sigmoidal inhibition model with four variables (top, bottom, slope, IC50) in a global fit using the normalized replicate data.

Molecules are shown by their SMILES.

T1 sequence (P42858 with tags, fused parts or gaps with the stated changes): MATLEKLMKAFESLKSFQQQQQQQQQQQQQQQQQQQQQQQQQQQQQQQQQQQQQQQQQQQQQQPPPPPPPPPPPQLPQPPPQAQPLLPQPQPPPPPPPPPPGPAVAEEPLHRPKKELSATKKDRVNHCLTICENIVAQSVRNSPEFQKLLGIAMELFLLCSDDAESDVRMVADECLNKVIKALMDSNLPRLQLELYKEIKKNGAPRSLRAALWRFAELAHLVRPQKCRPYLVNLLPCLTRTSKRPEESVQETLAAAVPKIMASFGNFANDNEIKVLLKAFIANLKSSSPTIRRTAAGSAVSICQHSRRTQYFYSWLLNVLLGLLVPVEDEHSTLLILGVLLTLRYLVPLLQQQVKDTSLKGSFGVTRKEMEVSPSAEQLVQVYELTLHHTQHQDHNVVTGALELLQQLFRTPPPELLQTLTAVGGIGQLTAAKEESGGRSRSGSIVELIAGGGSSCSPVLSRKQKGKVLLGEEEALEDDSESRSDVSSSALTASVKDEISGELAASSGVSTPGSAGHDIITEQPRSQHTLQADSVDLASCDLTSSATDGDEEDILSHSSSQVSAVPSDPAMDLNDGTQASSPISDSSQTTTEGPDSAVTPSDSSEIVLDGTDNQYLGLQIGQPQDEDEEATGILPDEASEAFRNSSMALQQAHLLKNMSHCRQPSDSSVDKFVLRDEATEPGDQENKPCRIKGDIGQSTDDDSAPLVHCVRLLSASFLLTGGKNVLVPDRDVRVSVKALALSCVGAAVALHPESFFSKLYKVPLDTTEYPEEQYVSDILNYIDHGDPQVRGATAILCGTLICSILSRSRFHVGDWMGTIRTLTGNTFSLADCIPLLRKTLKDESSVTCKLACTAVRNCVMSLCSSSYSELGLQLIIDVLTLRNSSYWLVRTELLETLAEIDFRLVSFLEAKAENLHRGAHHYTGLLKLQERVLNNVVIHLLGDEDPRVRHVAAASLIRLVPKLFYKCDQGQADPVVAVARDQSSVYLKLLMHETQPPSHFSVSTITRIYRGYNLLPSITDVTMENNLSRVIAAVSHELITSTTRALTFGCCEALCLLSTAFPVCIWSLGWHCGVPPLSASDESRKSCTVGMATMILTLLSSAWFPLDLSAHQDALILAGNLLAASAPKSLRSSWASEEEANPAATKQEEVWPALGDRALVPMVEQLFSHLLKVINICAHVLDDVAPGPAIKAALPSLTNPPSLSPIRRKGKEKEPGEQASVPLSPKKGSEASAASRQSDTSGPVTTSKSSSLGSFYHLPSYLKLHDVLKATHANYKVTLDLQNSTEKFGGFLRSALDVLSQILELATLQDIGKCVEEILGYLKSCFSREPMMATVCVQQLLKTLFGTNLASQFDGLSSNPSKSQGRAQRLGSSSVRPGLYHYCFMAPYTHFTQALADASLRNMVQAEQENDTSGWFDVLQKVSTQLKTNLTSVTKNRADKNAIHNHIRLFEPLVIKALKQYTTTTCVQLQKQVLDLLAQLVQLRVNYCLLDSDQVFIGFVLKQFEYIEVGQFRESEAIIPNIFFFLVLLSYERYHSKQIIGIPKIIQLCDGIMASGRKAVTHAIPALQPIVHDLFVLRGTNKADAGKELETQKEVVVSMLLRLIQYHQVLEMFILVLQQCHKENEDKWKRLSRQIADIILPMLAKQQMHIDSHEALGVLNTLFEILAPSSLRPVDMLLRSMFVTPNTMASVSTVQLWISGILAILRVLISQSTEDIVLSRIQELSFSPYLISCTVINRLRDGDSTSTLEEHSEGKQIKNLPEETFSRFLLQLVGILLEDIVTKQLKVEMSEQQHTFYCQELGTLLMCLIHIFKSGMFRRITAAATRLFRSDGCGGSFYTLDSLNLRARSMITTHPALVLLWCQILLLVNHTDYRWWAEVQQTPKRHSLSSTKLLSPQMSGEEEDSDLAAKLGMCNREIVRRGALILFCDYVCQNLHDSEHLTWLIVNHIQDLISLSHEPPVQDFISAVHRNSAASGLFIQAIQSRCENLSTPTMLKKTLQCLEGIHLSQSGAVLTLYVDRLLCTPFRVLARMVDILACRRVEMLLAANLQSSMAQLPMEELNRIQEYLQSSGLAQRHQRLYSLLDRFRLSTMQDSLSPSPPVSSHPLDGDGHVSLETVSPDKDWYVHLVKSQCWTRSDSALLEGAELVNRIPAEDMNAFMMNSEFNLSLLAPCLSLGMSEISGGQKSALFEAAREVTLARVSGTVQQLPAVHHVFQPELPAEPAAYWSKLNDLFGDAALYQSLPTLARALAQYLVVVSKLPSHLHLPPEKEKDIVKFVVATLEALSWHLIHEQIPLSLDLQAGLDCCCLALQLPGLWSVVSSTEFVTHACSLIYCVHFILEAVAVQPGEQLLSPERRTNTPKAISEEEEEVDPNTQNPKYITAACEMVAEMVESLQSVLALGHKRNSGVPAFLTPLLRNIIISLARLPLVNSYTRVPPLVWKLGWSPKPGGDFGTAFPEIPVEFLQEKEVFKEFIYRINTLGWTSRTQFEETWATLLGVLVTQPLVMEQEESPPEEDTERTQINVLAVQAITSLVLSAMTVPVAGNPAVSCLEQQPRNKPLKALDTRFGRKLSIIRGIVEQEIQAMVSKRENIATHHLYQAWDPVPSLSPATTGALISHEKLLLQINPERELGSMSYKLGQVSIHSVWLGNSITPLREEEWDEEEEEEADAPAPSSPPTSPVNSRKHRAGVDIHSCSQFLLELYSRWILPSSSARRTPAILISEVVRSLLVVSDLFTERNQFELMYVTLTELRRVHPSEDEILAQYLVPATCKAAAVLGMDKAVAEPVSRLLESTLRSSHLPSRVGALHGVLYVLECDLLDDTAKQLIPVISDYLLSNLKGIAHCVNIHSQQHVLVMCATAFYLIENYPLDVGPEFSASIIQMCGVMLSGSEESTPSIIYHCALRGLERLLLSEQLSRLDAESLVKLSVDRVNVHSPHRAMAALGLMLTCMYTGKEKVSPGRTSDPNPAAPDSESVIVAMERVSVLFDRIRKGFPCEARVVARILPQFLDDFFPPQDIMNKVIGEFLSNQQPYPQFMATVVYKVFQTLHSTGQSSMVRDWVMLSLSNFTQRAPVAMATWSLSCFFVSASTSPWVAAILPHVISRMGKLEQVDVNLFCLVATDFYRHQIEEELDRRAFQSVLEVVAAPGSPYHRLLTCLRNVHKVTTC

The molecule `CNc1c(-c2cc3cc(OCCN(C)C)ccc3o2)nc2cc(C#N)ccn12` [2-{5-[2-(dimethylamino)ethoxy]-1-benzofuran-2-yl}-3-(methylamino)imidazo[1,2-a]pyridine-7-carbonitrile] showed a half-maximal inhibitory concentration (IC50) of 100 to 500 nM.

`CNc1c(-c2cc3cc(F)ccc3o2)nc2cc(C#N)ccn12` [2-(5-fluoro-1-benzofuran-2-yl)-3-(methylamino)imidazo[1,2-a]pyridine-7-carbonitrile]: the concentration for half-maximal inhibition (IC50) is below 100 nM.

With `CNc1c(-c2cc3cc(OCc4cccnc4)ccc3o2)nc2cc(C#N)ccn12` [3-(methylamino)-2-[5-(pyridin-3-ylmethoxy)-1-benzofuran-2-yl]imidazo[1,2-a]pyridine-7-carbonitrile], the IC50 was below 100 nM.

In turn, `CNc1c(-c2cn3c(n2)sc2cc(OC)ccc23)nc2cc(C#N)ccn12` [2-{10-methoxy-7-thia-2,5-diazatricyclo[6.4.0.0^2,6]dodeca-1(12),3,5,8,10-pentaen-4-yl}-3-(methylamino)imidazo[1,2-a]pyridine-7-carbonitrile] showed an IC50 below 100 nM.

The molecule `CNc1c(-c2ccc(OCc3cnc(OC)cn3)nc2)nc2cc(C#N)ccn12` [2-{6-[(5-methoxypyrazin-2-yl)methoxy]pyridin-3-yl}-3-(methylamino)imidazo[1,2-a]pyridine-7-carbonitrile] returned a 50% inhibitory concentration (IC50) below 100 nM.

The molecule `CNc1c(-c2cc3ccc(OC)cc3o2)nc2cc(C#N)ccn12` [2-(6-methoxy-1-benzofuran-2-yl)-3-(methylamino)imidazo[1,2-a]pyridine-7-carbonitrile] showed an IC50 below 100 nM.

Molecule `CNc1c(-c2ccc(Br)o2)nc2cc(C#N)ccn12` [2-(5-bromofuran-2-yl)-3-(methylamino)imidazo[1,2-a]pyridine-7-carbonitrile] registered an IC50 of 100 to 500 nM.

Turning to `CNc1c(-c2cc3cc(OC)ccc3o2)nc2ccc(F)cn12` [6-fluoro-2-(5-methoxy-1-benzofuran-2-yl)-N-methylimidazo[1,2-a]pyridin-3-amine], the half-inhibitory concentration (IC50) is below 100 nM.

`COCCNc1c(-c2cc3cc(OC)ccc3o2)nc2ccccn12` [2-(5-methoxy-1-benzofuran-2-yl)-N-(2-methoxyethyl)imidazo[1,2-a]pyridin-3-amine]: the half-maximal inhibitory concentration (IC50) fell in the range of 100 to 500 nM.

Take `CNc1c(-c2cn3c(n2)sc2ccc(OC)cc23)nc2cc(C#N)ccn12` [2-{11-methoxy-7-thia-2,5-diazatricyclo[6.4.0.0^2,6]dodeca-1(12),3,5,8,10-pentaen-4-yl}-3-(methylamino)imidazo[1,2-a]pyridine-7-carbonitrile]: the IC50 was below 100 nM.

The molecule `CNc1c(-c2cc3cc(OC)ccc3o2)nc2cc(CN)ccn12` [7-(aminomethyl)-2-(5-methoxy-1-benzofuran-2-yl)-N-methylimidazo[1,2-a]pyridin-3-amine] registered an IC50 of 100 to 500 nM.

As for `N#Cc1ccn2c(N)c(-c3cc4cc(OCCF)ccc4o3)nc2c1` [3-amino-2-[5-(2-fluoroethoxy)-1-benzofuran-2-yl]imidazo[1,2-a]pyridine-7-carbonitrile], the half-inhibitory concentration (IC50) is below 100 nM.

Molecule `C#CCOc1ccc(-c2nc3cc(C#N)ccn3c2NC)cc1` [3-(methylamino)-2-[4-(prop-2-yn-1-yloxy)phenyl]imidazo[1,2-a]pyridine-7-carbonitrile] came in with a 50% inhibitory concentration (IC50) of 100 to 500 nM.

Turning to `CNc1c(-c2cnc(OCc3ccc(OC)cn3)cn2)nc2cc(C#N)ccn12` [2-{5-[(5-methoxypyridin-2-yl)methoxy]pyrazin-2-yl}-3-(methylamino)imidazo[1,2-a]pyridine-7-carbonitrile], the IC50 was below 100 nM.

Turning to `CNc1c(/C=C/c2ccc(OC)cc2)nc2cc(C#N)ccn12` [2-[(E)-2-(4-methoxyphenyl)ethenyl]-3-(methylamino)imidazo[1,2-a]pyridine-7-carbonitrile], the half-maximal inhibitory concentration (IC50) was below 100 nM.

Regarding `CNc1c(-c2cccc(-c3cnccn3)c2)nc2cc(C#N)ccn12` [3-(methylamino)-2-[3-(pyrazin-2-yl)phenyl]imidazo[1,2-a]pyridine-7-carbonitrile], the IC50 is below 100 nM.

Molecule `COc1ccc2oc(-c3nc4cc(C#N)ccn4c3CN(C)C)cc2c1` [3-[(dimethylamino)methyl]-2-(5-methoxy-1-benzofuran-2-yl)imidazo[1,2-a]pyridine-7-carbonitrile] gave a concentration for half-maximal inhibition (IC50) of 100 to 500 nM.

Molecule `CNc1c(-c2ccc(-c3cnccn3)cc2)nc2cc(C#N)ccn12` [3-(methylamino)-2-[4-(pyrazin-2-yl)phenyl]imidazo[1,2-a]pyridine-7-carbonitrile] registered an IC50 below 100 nM.

Regarding `CNc1c(-c2cccc(OCc3cccnc3)c2)nc2cc(C#N)ccn12` [3-(methylamino)-2-[3-(pyridin-3-ylmethoxy)phenyl]imidazo[1,2-a]pyridine-7-carbonitrile], the IC50 is below 100 nM.

`CNc1c(-c2ccc(OCc3cnc(OC)cn3)cn2)nc2cc(C#N)ccn12` [2-{5-[(5-methoxypyrazin-2-yl)methoxy]pyridin-2-yl}-3-(methylamino)imidazo[1,2-a]pyridine-7-carbonitrile] displayed a 50% inhibitory concentration (IC50) below 100 nM.

Take `COc1ccc2oc(-c3cn4ccc(C#N)cc4n3)cc2c1` [2-(5-methoxy-1-benzofuran-2-yl)imidazo[1,2-a]pyridine-7-carbonitrile]: the IC50 is below 100 nM.

The molecule `CNc1c(-c2cc3cc(OC)ccc3o2)nc2cc(C#N)ccn12` [2-(5-methoxy-1-benzofuran-2-yl)-3-(methylamino)imidazo[1,2-a]pyridine-7-carbonitrile] returned an IC50 below 100 nM.

For `CNc1c(-c2ccc(COCc3cccnc3)cc2)nc2cc(C#N)ccn12` [3-(methylamino)-2-{4-[(pyridin-3-ylmethoxy)methyl]phenyl}imidazo[1,2-a]pyridine-7-carbonitrile], the IC50 lay in the range of 100 to 500 nM.

`CNc1c(-c2ccc(OCc3cnc(OC)cn3)cc2)nc2cc(C#N)ccn12` [2-{4-[(5-methoxypyrazin-2-yl)methoxy]phenyl}-3-(methylamino)imidazo[1,2-a]pyridine-7-carbonitrile] showed a half-inhibitory concentration (IC50) below 100 nM.

`CNc1c(-c2cccc(COCc3cccnc3)c2)nc2cc(C#N)ccn12` [3-(methylamino)-2-{3-[(pyridin-3-ylmethoxy)methyl]phenyl}imidazo[1,2-a]pyridine-7-carbonitrile] came in with an IC50 of 100 to 500 nM.

Consider `CNc1c(-c2ccc(C#N)cc2)nc2cc(C#N)ccn12` [2-(4-cyanophenyl)-3-(methylamino)imidazo[1,2-a]pyridine-7-carbonitrile], for which the IC50 was below 100 nM.

In the case of `CNc1c(-c2cc3cc(O)ccc3o2)nc2cc(F)ccn12` [2-[7-fluoro-3-(methylamino)imidazo[1,2-a]pyridin-2-yl]-1-benzofuran-5-ol], the IC50 is below 100 nM.

On to `CNc1c(-c2cc3cc(OC)ccc3o2)nc2cc(OC)ccn12` [7-methoxy-2-(5-methoxy-1-benzofuran-2-yl)-N-methylimidazo[1,2-a]pyridin-3-amine], for which the IC50 was below 100 nM.

In the case of `CNc1c(-c2nc3cc(OC)ccc3o2)nc2cc(C#N)ccn12` [2-(5-methoxy-1,3-benzoxazol-2-yl)-3-(methylamino)imidazo[1,2-a]pyridine-7-carbonitrile], the concentration for half-maximal inhibition (IC50) is below 100 nM.

For `CNc1c(-c2cc3cc(O)ccc3o2)nc2cc(C#N)ccn12` [2-(5-hydroxy-1-benzofuran-2-yl)-3-(methylamino)imidazo[1,2-a]pyridine-7-carbonitrile], the half-maximal inhibitory concentration (IC50) was below 100 nM.

Take `CNc1c(-c2ccc(OCC3=CSC4=NCCN34)cc2)nc2cc(C#N)ccn12` [2-(4-{5H,6H-imidazo[2,1-b][1,3]thiazol-3-ylmethoxy}phenyl)-3-(methylamino)imidazo[1,2-a]pyridine-7-carbonitrile]: the half-maximal inhibitory concentration (IC50) is below 100 nM.

For `CNc1c(-c2ccc3occc3c2)nc2cc(C#N)ccn12` [2-(1-benzofuran-5-yl)-3-(methylamino)imidazo[1,2-a]pyridine-7-carbonitrile], the IC50 was in the range of 100 to 500 nM.

In the case of `CNc1c(-c2cccc(OCc3cnc(OC)cn3)c2)nc2cc(C#N)ccn12` [2-{3-[(5-methoxypyrazin-2-yl)methoxy]phenyl}-3-(methylamino)imidazo[1,2-a]pyridine-7-carbonitrile], the concentration for half-maximal inhibition (IC50) was below 100 nM.

`COc1ccc2oc(-c3nc4cc(C#N)ccn4c3NCCN(C)C)cc2c1` [3-{[2-(dimethylamino)ethyl]amino}-2-(5-methoxy-1-benzofuran-2-yl)imidazo[1,2-a]pyridine-7-carbonitrile] returned an IC50 of 100 to 500 nM.

Take `CNc1c(-c2nc3ccc(OC)cc3n2C)nc2cc(C#N)ccn12` [2-(6-methoxy-1-methyl-1H-1,3-benzodiazol-2-yl)-3-(methylamino)imidazo[1,2-a]pyridine-7-carbonitrile]: the half-inhibitory concentration (IC50) was below 100 nM.

As for `CNc1c(-c2ccc(OCc3cccnc3)cc2)nc2cc(C#N)ccn12` [3-(methylamino)-2-[4-(pyridin-3-ylmethoxy)phenyl]imidazo[1,2-a]pyridine-7-carbonitrile], the IC50 is below 100 nM.

Usually IC50 stands for the point on the concentration scale where inhibition reaches its midpoint. Read a high IC50 as weaker potency in that assay.
